Experimental data as given in patent US20100267795A1, “NITROSUBSTITUTED ARYLOXYALKYLIMIDAZOLINES FOR USE AS PESTICIDES” (SYNGENTA CROP PROTECTION, INC., priority 2007, published 2010).

Legend:
Assay type in all cases: in vivo
[1] = test system: Myzus persicae (green peach aphid); assay: Myzus persicae (green peach aphid) pea seedling root uptake test; conditions: for control (mortality): 24 ppm test solution, roots of infested pea seedlings, 6 days after introduction; for mortality at 24 ppm: Myzus persicae, 144 h, read-out: control (mortality)
Text: Roots of pea seedlings, infested with an aphid population of mixed ages, were placed directly in the test solutions of 24 ppm. 6 days after introduction, samples were checked for mortality. The following compounds gave 100% control: 1.004 and 1.012. The following compounds gave 80% control: 1.001, 1.002, 1.009, 1.013 and 1.016. The following compound gave 50% control: 1.003.

[2] = test system: Heliothis virescens (tobacco budworm); assay: Heliothis virescens (tobacco budworm) egg/larva test on artificial diet; conditions: for control (egg mortality, larval mortality, growth regulation): 200 ppm by pipetting, eggs 0-24 h old on artificial diet, 4 days incubation; for mortality at 200 ppm: Heliothis virescens, read-out: control (egg mortality, larval mortality, growth regulation)
Experimental: Eggs (0-24 h old) were placed in 24-well microtiter plate on artificial diet and treated with test solutions at an application rate of 200 ppm by pipetting. After an incubation period of 4 days, samples were checked for egg mortality, larval mortality, and growth regulation. The following compounds gave 100% control: 1.003 and 1.009. The following compounds gave 80% control: 1.001, 1.004, 1.005, 1.008 and 1.016. The following compounds gave 50% control: 1.013 and 1.017.

[3] = test system: Tetranychus urticae (two-spotted spider mite); assay: Tetranychus urticae (two-spotted spider mite) bean leaf disc spray test; conditions: for mortality at 200 ppm: Tetranychus urticae, foliar, 192 h, read-out: control (egg mortality, larval mortality, adult mortality)
Text: Bean leaf discs on agar in 24-well microtiter plates wer sprayed with test solutions at an application rate of 200 ppm. After drying, the leaf discs are infested with mite populations of mixed ages. 8 days later, discs are checked for egg mortality, larval mortality, and adult mortality. The following compounds gave 100% control: 1.001, 1.002, 1.003, 1.004, 1.006, 1.008, 1.009, 1.010, 1.012, 1.013, 1.014, 1.016, 1.017 and 1.018. The following compound gave 50% control: 1.011.

[4] = test system: Myzus persicae (green peach aphid); assay: Myzus persicae (green peach aphid) sunflower leaf disc spray test; conditions: for control (mortality): 200 ppm spray on sunflower leaf discs, aphid population of mixed ages, 6 DAT; for mortality at 200 ppm: Myzus persicae, foliar, 144 h, read-out: control (mortality)
Experimental: Sunflower leaf discs were placed on agar in a 24-well microtiter plate and sprayed with test solutions at an application rate of 200 ppm. After drying, the leaf discs were infested with an aphid population of mixed ages. After an incubation period of 6 DAT, samples were checked for mortality. The following compounds gave 100% control: 1.001, 1.002, 1.003, 1.004, 1.005, 1.006, 1.008, 1.009, 1.012, 1.013, 1.014, 1.016, 1.017 and 1.018. The following compounds gave 80% control: 1.007 and 1.011. The following compound gave 50% control: 1.010

## CCC(Oc1cccc([N+](=O)[O-])c1C)C1=NCCN1 (stereo not drawn) [Compound 1.001]
[1]
  control (mortality): 80%
[2]
  control (egg mortality, larval mortality, growth regulation): 80%

## CCC(Oc1cccc([N+](=O)[O-])c1Cl)C1=NCCN1C(=O)OC(C)(C)C (stereo not drawn) [Compound 1.011]
[3]; 200 ppm spray on bean leaf discs, mite populations of mixed ages, 8 days
  control (egg mortality, larval mortality, adult mortality): 50%
[4]
  control (mortality): 80%

## CCC(Oc1cccc([N+](=O)[O-])c1C)C1=NCCN1C(=O)OC(C)(C)C (stereo not drawn) [Compound 1.007]
[4]
  control (mortality): 80%

## CCC(Oc1cccc([N+](=O)[O-])c1Cl)C1=NCCN1 (stereo not drawn) [Compound 1.008, 2-[1-(2-Chloro-3-nitro-phenoxy)-propyl]-4,5-dihydro-1H-imidazole]
[3]
  mortality at 200 ppm: 100%
[4]
  mortality at 200 ppm: 100%
[2]
  mortality at 200 ppm: 80%

## Cc1c(OC(C2=NCCN2)C(C)C)cccc1[N+](=O)[O-] (stereo not drawn) [Compound 1.002]
[1]
  control (mortality): 80%

## CCCC(Oc1cccc([N+](=O)[O-])c1Cl)C1=NCCN1C(=O)OC(C)(C)C (stereo not drawn) [Compound 1.010]
[4]
  control (mortality): 50%

## CCCC(Oc1cccc([N+](=O)[O-])c1Cl)C1=NCCN1 (stereo not drawn) [Compound 1.009]
[1]
  control (mortality): 80%
[2]
  control (egg mortality, larval mortality, growth regulation): 100%

## Cc1c(OC(C2=NCCN2)C2CC2)cccc1[N+](=O)[O-] (stereo not drawn) [Compound 1.003]
[1]
  control (mortality): 50%
[2]
  control (egg mortality, larval mortality, growth regulation): 100%

## C=CCC(Oc1cccc([N+](=O)[O-])c1Cl)C1=NCCN1 (stereo not drawn) [Compound 1.016, 2-[1-(2-Chloro-3-nitro-phenoxy)-but-3-enyl]-4,5-dihydro-1H-imidazole]
[3]
  mortality at 200 ppm: 100%
[1]
  mortality at 24 ppm: 80%
[4]
  mortality at 200 ppm: 100%
[2]
  mortality at 200 ppm: 80%

## CCCC(Oc1cccc([N+](=O)[O-])c1C)C1=NCCN1 (stereo not drawn) [Compound 1.004]
[1]
  control (mortality): 100%
[2]
  control (egg mortality, larval mortality, growth regulation): 80%

## COCC(Oc1cccc([N+](=O)[O-])c1C)C1=NCCN1 (stereo not drawn) [Compound 1.012, 2-[2-Methoxy-1-(2-methyl-3-nitro-phenoxy)-ethyl]-4,5-dihydro-1H-imidazole]
[3]
  mortality at 200 ppm: 100%
[1]
  mortality at 24 ppm: 100%
[4]
  mortality at 200 ppm: 100%

## CCCCC(Oc1cccc([N+](=O)[O-])c1C)C1=NCCN1 (stereo not drawn) [Compound 1.005]
[2]
  control (egg mortality, larval mortality, growth regulation): 80%

## COCC(Oc1cccc([N+](=O)[O-])c1Cl)C1=NCCN1 (stereo not drawn) [Compound 1.017]
[2]
  control (egg mortality, larval mortality, growth regulation): 50%

## C=CCC(Oc1cccc([N+](=O)[O-])c1C)C1=NCCN1 (stereo not drawn) [Compound 1.013]
[1]
  control (mortality): 80%
[2]
  control (egg mortality, larval mortality, growth regulation): 50%
